Like-named read-outs stand apart in the source and are kept apart here.
What was measured:
[1] = target: DNA-PK phosphorylation at serine 2056 (Homo sapiens (Human), UniProt P78527); assay: DNA-PK phosphorylation at serine 2056 (cellular), bleomycin-treated HCT116 cells, ELISA; type: cell-based; conditions: cellular DNA-PK phosphorylation at serine 2056, HCT116; read-out: IC50 pDNA-PK
Outline: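 HCT116, MEM alpha + 10% FCS, 37 °C/10% CO2, seeded o/n. Cpd + 10 μM bleomycin, 6 h. ELISA, chemiluminescence; phospho/total DNA-PKcs ratio, DMSO = blank.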

DNA-PK = DNA-PK (Homo sapiens (Human), UniProt P78527); assay: DNA-PK assay (biochemical), flashplate 33P-ATP kinase assay; conditions: biochemical DNA-PK assay
Outline: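 Radiometric kinase reaction in streptavidin-coated flashplates, stopped with 200 mM EDTA, then 30 min room-temperature incubation and saline washes.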

Kv11.1 (hERG) = Kv11.1 (hERG) (Homo sapiens (Human), UniProt Q12809); assay: Kv11.1 (hERG) ion channel activity (patch clamp assay), HEK293 cells transfected with hERG gene; conditions: hERG patch clamp assay (cells without asterisk)
Sequence of Kv11.1 (hERG) (Q12809 whole entry): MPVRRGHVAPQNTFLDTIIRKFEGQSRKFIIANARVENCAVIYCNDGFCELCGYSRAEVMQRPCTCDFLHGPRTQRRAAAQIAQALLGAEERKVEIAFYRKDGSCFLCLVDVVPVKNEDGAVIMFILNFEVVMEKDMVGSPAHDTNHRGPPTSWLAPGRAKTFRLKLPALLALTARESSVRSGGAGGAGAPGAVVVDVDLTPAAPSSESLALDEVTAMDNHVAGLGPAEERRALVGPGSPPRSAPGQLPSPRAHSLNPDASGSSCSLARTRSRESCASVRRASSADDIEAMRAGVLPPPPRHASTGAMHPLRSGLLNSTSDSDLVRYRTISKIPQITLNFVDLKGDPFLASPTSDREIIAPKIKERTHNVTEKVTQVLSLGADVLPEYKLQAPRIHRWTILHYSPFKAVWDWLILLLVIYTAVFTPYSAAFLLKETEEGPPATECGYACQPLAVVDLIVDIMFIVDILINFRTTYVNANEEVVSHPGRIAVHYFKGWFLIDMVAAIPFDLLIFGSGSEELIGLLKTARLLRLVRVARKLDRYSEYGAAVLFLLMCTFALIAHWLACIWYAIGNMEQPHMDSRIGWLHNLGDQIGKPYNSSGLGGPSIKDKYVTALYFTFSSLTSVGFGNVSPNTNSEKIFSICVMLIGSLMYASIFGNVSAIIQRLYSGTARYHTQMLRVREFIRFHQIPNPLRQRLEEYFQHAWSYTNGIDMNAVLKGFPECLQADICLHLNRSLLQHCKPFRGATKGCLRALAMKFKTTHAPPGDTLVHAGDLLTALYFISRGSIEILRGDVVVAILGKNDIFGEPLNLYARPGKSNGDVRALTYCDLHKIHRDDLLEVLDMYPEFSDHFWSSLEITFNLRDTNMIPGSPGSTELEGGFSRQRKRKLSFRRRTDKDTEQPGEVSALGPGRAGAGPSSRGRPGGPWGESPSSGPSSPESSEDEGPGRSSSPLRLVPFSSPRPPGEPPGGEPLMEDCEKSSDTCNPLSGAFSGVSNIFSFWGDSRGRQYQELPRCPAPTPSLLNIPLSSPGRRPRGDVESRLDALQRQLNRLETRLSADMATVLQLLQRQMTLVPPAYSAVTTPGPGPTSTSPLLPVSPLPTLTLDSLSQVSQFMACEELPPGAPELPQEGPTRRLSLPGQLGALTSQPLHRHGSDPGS

SMILES | IC50 [1] | IC50 (DNA-PK) | Ki (Kv11.1 (hERG); read-out: Ki [Kv1.11 hERG]) | Ki (Kv11.1 (hERG); Ki [Kv1.11 hERG])
O=C1CCCN1c1nccnc1C(O)c1ccc(F)c(-c2ncnc3cc(N4CCOCC4)ccc23)c1 (stereo not drawn) [Example 425, 1-(3-{[4-Fluoro-3-(7-morpholin-4-yl-quinazolin-4-yl)-phenyl]hydroxy-methyl}pyrazin-2-yl)-pyrrolidin-2-one] | 10000 to 30000 nM | > 30 nM | > 25000 nM | 
Cc1nccnc1C(O)c1cc(-c2ncnc3cc(N4CCOCC4)ccc23)ccc1Cl (stereo not drawn) [Example 426, [2-Chloro-5-(7-morpholin-4-yl-quinazolin-4-yl)-phenyl]-(3-methyl-pyrazin-2-yl)-methanol] | 500 to 5000 nM | 7 to 30 nM | > 25000 nM | 
Cc1nccnc1C(O)c1cc(-c2ncnc3cc(N4CCOCC4)ccc23)ccc1Cl (stereo not drawn) [Example 427, [2-Chloro-5-(7-morpholin-4-yl-quinazolin-4-yl)-phenyl]-(3-methyl-pyrazin-2-yl)-methanol] | 500 to 5000 nM | 7 to 30 nM |  | 15000 to 25000 nM
Cc1nccnc1C(O)c1cc(-c2ncnc3cc(N4CCOCC4)ccc23)ccc1Cl (stereo not drawn) [Example 428, [2-Chloro-5-(7-morpholin-4-yl-quinazolin-4-yl)-phenyl]-(3-methyl-pyrazin-2-yl)-methanol] | < 500 nM | 7 to 30 nM |  | 10000 to 15000 nM
OC(c1cc(-c2ncnc3cc(N4CCOCC4)ccc23)c(F)cc1Cl)c1ncnc2sccc12 (stereo not drawn) [Example 429, [2-Chloro-4-fluoro-5-(7-morpholin-4-yl-quinazolin-4-yl)-phenyl]thieno[2,3-d}-pyrimidin-4-yl-methanol] | < 500 nM | < 3 nM | < 10000 nM | 
OC(c1cc(-c2ncnc3cc(N4CCOCC4)ccc23)ccc1Cl)c1ncnc2sccc12 (stereo not drawn) [Example 430, [2-Chloro-5-(7-morpholin-4-yl-quinazolin-4-yl)-phenyl]thieno[2,3-d}-pyrimidin-4-yl-methanol] | < 500 nM | 3 to 7 nM | > 25000 nM | 
OC(c1cc(-c2ncnc3cc(N4CCOCC4)ccc23)ccc1Cl)c1ncnc2ccoc12 (stereo not drawn) [Example 432, [2-Chloro-5-(7-morpholin-4-yl-quinazolin-4-yl)-phenyl]furo[3,2-d}-pyrimidin-4-yl-methanol] | 500 to 5000 nM | 7 to 30 nM | 10000 to 15000 nM | 
Cn1cnc2ncnc(C(O)c3ccc(F)c(-c4ncnc5cc(N6CCOCC6)ccc45)c3)c21 (stereo not drawn) [Example 433, [4-Fluoro-3-(7-morpholin-4-yl-quinazolin-4-yl)-phenyl]-(7-methyl-7H-purin-6-yl)-methanol] | 500 to 5000 nM | 7 to 30 nM | > 25000 nM | 
OC(c1ccc(F)c(-c2ncnc3cc(N4CCOCC4)ccc23)c1)c1ncnc2occc12 (stereo not drawn) [Example 434, [4-Fluoro-3-(7-morpholin-4-yl-quinazolin-4-yl)-phenyl]furo[2,3-d}-pyrimidin-4-yl-methanol] | < 500 nM | < 3 nM | > 25000 nM | 
Cn1c(C(O)c2cc(-c3ncnc4cc(N5CCOCC5)ccc34)c(F)cc2Cl)cccc1=O (stereo not drawn) [Example 435, 6-{[2-Chloro-4-fluoro-5-(7-morpholin-4-yl-quinazolin-4-yl)-phenyl]hydroxy-methyl}-l-methyl-1H-pyridin-2-one] | < 500 nM | 3 to 7 nM | > 25000 nM | 
Cn1c(C(O)c2cc(-c3ncnc4cc(N5CCOCC5)ccc34)c(F)cc2F)cccc1=O (stereo not drawn) [Example 436, 6-{[2,4-Difluoro-5-(7-morpholin-4-yl-quinazolin-4-yl)-phenyl]hydroxy-methyl}-1-methyl-1H-pyridin-2-one] | 500 to 5000 nM | 3 to 7 nM | > 25000 nM | 
OC(c1ccc(F)c(-c2ncnc3cc(N4CCOCC4)ccc23)c1)c1ncnc2sccc12 (stereo not drawn) [Example 437, [4-Fluoro-3-(7-morpholin-4-yl-quinazolin-4-yl)-phenyl]thieno[2,3-d}-pyrimidin-4-yl-methanol] | < 500 nM | < 3 nM |  | 10000 to 15000 nM
OC(c1ccc(F)c(-c2ncnc3cc(N4CCOCC4)ccc23)c1)c1ncnc2ccsc12 (stereo not drawn) [Example 438, [4-Fluoro-3-(7-morpholin-4-yl-quinazolin-4-yl)-phenyl]thieno[3,2-d}-pyrimidin-4-yl-methanol] | < 500 nM | < 3 nM |  | 10000 to 15000 nM
OC(c1cc(-c2ncnc3cc(N4CCOCC4)ccc23)c(F)cc1F)c1ncnc2ccsc12 (stereo not drawn) [Example 439, [2,4-Difluoro-5-(7-morpholin-4-yl-quinazolin-4-yl)-phenyl]thieno[3,2-d}-pyrimidin-4-yl-methanol] | < 500 nM | < 3 nM |  | 10000 to 15000 nM
OC(c1cc(-c2ncnc3cc(N4CCOCC4)ccc23)c(F)cc1Cl)c1ncnc2ccoc12 (stereo not drawn) [Example 440, [2-Chloro-4-fluoro-5-(7-morpholin-4-yl-quinazolin-4-yl)-phenyl]furo[3,2-d}-pyrimidin-4-yl-methanol] | < 500 nM | < 3 nM |  | 15000 to 25000 nM
OC(c1cc(-c2ncnc3cc(N4CCOCC4)ccc23)c(F)cc1Cl)c1ncnc2ccoc12 (stereo not drawn) [Example 441, [2-Chloro-4-fluoro-5-(7-morpholin-4-yl-quinazolin-4-yl)-phenyl]furo[3,2-d}-pyrimidin-4-yl-methanol] | < 500 nM | < 3 nM |  | 10000 to 15000 nM
OC(c1ccc(F)c(-c2ncnc3cc(N4CCOCC4)ccc23)c1)c1ncnc2ccoc12 (stereo not drawn) [Example 442, [4-Fluoro-3-(7-morpholin-4-yl-quinazolin-4-yl)-phenyl]furo[3,2-d}-pyrimidin-4-yl-methanol] | < 500 nM | < 3 nM | > 25000 nM | 
OC(c1cc(-c2ncnc3cc(N4CCOCC4)ccc23)c(F)cc1F)c1ncnc2ccoc12 (stereo not drawn) [Example 444, [2,4-Difluoro-5-(7-morpholin-4-yl-quinazolin-4-yl)-phenyl]furo[3,2-d}-pyrimidin-4-yl-methanol] | 500 to 5000 nM | < 3 nM | > 25000 nM | 
COc1cncnc1C(O)c1cc(-c2ncnc3cc(N4CCOCC4)ccc23)c(F)cc1Cl (stereo not drawn) [Example 447, [2-Chloro-4-fluoro-5-(7-morpholin-4-yl-quinazolin-4-yl)-phenyl]-(5-methoxy-pyrimidin-4-yl)-methanol] | 500 to 5000 nM | < 3 nM |  | 10000 to 15000 nM
COc1cncnc1C(O)c1cc(-c2ncnc3cc(N4CCOCC4)ccc23)c(F)cc1F (stereo not drawn) [Example 448, [2,4-Difluoro-5-(7-morpholin-4-yl-quinazolin-4-yl)-phenyl]-(5-methoxy-pyrimidin-4-yl)-methanol] | 500 to 5000 nM | < 3 nM |  | 10000 to 15000 nM
OC(c1cc(-c2ncnc3cc(N4CCOCC4)ccc23)c(F)cc1F)c1nccnc1OC(F)F (stereo not drawn) [Example 449, (3-Difluoromethoxy-pyrazin-2-yl)-[2,4-difluoro-5-(7-morpholin-4-yl-quinazolin-4-yl)-phenyl]methanol] | 500 to 5000 nM | < 3 nM | > 25000 nM | 
OC(c1cc(-c2ncnc3cc(N4CCOCC4)ccc23)c(F)cc1F)c1nccnc1OC(F)F (stereo not drawn) [Example 450, (3-Difluoromethoxy-pyrazin-2-yl)-[2,4-difluoro-5-(7-morpholin-4-yl-quinazolin-4-yl)-phenyl]methanol] | 5000 to 10000 nM | 7 to 30 nM |  | 15000 to 25000 nM
OC(c1cc(-c2ncnc3cc(N4CCOCC4)ccc23)c(F)cc1F)c1nccnc1OC(F)F (stereo not drawn) [Example 451, (3-Difluoromethoxy-pyrazin-2-yl)-[2,4-difluoro-5-(7-morpholin-4-yl-quinazolin-4-yl)-phenyl]methanol] | 500 to 5000 nM | 3 to 7 nM | 15000 to 25000 nM | 
OC(c1cc(-c2ncnc3cc(N4CCOCC4)ccc23)c(F)cc1Cl)c1ncnc2ccoc12 (stereo not drawn) [Example 452, [2-Chloro-4-fluoro-5-(7-morpholin-4-yl-quinazolin-4-yl)-phenyl]furo[3,2-d}-pyrimidin-4-yl-methanol] | < 500 nM | < 3 nM |  | 10000 to 15000 nM
COc1nccnc1C(O)c1cc(-c2ncnc3cc(N4CCOCC4)ccc23)c(F)cc1F (stereo not drawn) [Example 453, [2,4-Difluoro-5-(7-morpholin-4-yl-quinazolin-4-yl)-phenyl]-(3-methoxy-pyrazin-2-yl)-methanol] | < 500 nM | 3 to 7 nM |  | 10000 to 15000 nM
COc1nccnc1C(O)c1cc(-c2ncnc3cc(N4CCOCC4)ccc23)c(F)cc1F (stereo not drawn) [Example 454, [2,4-Difluoro-5-(7-morpholin-4-yl-quinazolin-4-yl)-phenyl]-(3-methoxy-pyrazin-2-yl)-methanol] | < 500 nM | < 3 nM | > 25000 nM | 
COc1nccnc1[C@H](O)c1cc(-c2ncnc3cc(N4CCOCC4)ccc23)c(F)cc1Cl [Example 455, (R)-[2-Chloro-4-fluoro-5-(7-morpholin-4-yl-quinazolin-4-yl)-phenyl]-(3-methoxy-pyrazin-2-yl)-methanol] | < 500 nM | < 3 nM |  | 15000 to 25000 nM
COc1nccnc1[C@@H](O)c1cc(-c2ncnc3cc(N4CCOCC4)ccc23)c(F)cc1Cl [Example 456, (S)-(2-Chloro-4-fluoro-5-(7-morprholin-4-yl-quinazolin-4-yl)-pnenyl]-(3-methoxy-pyrazin-2-yl)-methanol] | < 500 nM | < 3 nM |  | 10000 to 15000 nM
Cc1nccnc1C(O)c1cc(-c2ncnc3cc(N4CCOCC4)ccc23)c(F)cc1Cl (stereo not drawn) [Example 457, [2-Chloro-4-fluoro-5-(7-morpholin-4-yl-quinazolin-4-yl)-phenyl]-(3-methyl-pyrazin-2-yl)-methanol] | < 500 nM | 3 to 7 nM | > 25000 nM | 
